In US8546381B2, “Bridged heterocyclic compounds and methods of use” (Medivation Technologies, Inc., priority 2008, dated 2013):

Columns and labels:
[1] = molecular target: T1, human recombinant adrenergic α2B receptor (Homo sapiens, UniProt P18089); experiment: Adrenergic α2B radioligand binding ([3H]Rauwolscine); details: for inhibition at 1 µM: read-out: Adrenergic α2B, inhibition of ligand binding (1 μM)
T1 construct: expressed in transfected cells; host or cells: CHO-K1 cells
T1 sequence (P18089 1-450): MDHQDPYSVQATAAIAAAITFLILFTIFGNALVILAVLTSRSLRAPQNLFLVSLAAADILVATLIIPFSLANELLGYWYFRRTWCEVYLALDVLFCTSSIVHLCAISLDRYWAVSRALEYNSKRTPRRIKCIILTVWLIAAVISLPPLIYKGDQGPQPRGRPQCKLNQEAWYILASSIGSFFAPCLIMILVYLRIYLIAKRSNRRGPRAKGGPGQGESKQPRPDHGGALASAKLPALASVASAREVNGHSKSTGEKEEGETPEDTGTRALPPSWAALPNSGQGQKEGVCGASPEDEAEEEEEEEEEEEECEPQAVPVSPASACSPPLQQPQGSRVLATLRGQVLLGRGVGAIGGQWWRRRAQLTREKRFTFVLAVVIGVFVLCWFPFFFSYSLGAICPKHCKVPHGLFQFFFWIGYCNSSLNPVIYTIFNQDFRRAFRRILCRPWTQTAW
Description: To evaluate in radioligand binding assays the activity of compounds of the invention, human recombinant adrenergic α2B receptor expressed in Chinese hamster ovary (CHO-K1) cells (Uhlen S et al. Eur J. Pharmacol. 343(1):93, 1998) in a modified Tris-HCl buffer (50 mM Tris-HCl, pH 7.4, 12.5 mM MgCl2, 1 mM EDTA, 0.2% BSA) was used. Compounds of the invention were incubated with 2.5 nM [^3H]Rauwolscine for 60 minutes at 25° C. Non-specific binding was estimated in the presence of 10 μM Prozosin. Receptor proteins were filtered and washed, the filters were then counted to determine [^3H]Rauwolscine specifically bound. Compounds were screened at 1 μM or lower, using 1% DMSO as vehicle. Biochemical assay results are presented as the percent inhibition of specific binding in Table 3.

[2] = molecular target: T2, human recombinant serotonin (5-Hydroxytryptamine) 5-HT2C receptor (Homo sapiens, UniProt P28335); experiment: Serotonin 5-HT2C radioligand binding ([3H]Mesulergine); details: for inhibition at 1 µM: read-out: Serotonin 5-HT2C, inhibition of ligand binding (1 μM)
T2 construct: expressed in transfected cells; host or cells: CHO-K1 cells
T2 sequence (P28335 33-458): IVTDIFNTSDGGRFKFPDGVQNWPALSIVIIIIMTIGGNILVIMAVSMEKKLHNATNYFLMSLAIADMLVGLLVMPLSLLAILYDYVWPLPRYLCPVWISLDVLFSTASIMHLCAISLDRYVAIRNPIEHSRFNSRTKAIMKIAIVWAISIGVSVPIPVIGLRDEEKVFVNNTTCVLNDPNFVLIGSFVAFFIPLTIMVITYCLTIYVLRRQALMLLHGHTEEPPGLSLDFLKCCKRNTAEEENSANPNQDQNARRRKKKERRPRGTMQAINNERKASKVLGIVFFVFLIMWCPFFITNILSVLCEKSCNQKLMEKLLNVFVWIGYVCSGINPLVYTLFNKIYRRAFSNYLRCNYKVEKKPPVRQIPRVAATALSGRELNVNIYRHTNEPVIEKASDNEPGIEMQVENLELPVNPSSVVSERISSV
Description: To evaluate in radioligand binding assays the activity of compounds of the invention, human recombinant serotonin (5-Hydroxytryptamine) 5-HT2C receptor expressed in Chinese hamster ovary (CHO-K1) cells (Wolf, W. A. and Schutz, J. S., J. Neurochem. 69:1449, 1997) in a modified Tris-HCl buffer (50 mM Tris-HCl, pH 7.4, 0.1% Ascorbic Acid, 10 μM Pargyline) was used. Compounds of the invention were incubated with 1 nM [^3H]Mesulergine for 60 minutes at 25° C. Non-specific binding was estimated in the presence of 1 μM Mianserin. Receptor proteins were filtered and washed, the filters were then counted to determine [^3H]Mesulergine specifically bound. Compounds were screened at 1 μM or lower, using 1% DMSO as vehicle. Biochemical assay results are presented as the percent inhibition of specific binding in Table 4.

[3] = molecular target: T3, human recombinant histamine H2 receptor (Homo sapiens, UniProt P25021); experiment: Histamine H2 radioligand binding ([125I]Aminopotentidine); details: compound at 1 μM, inhibition of specific [125I]Aminopotentidine binding; for inhibition at 1 µM: read-out: Histamine Binding (1 μM) H2, Percentage Inhibition
T3 construct: expressed in transfected cells; host or cells: CHO-K1 cells
Description: To evaluate in radioligand binding assays the activity of compounds of the invention, human recombinant histamine H2 receptor expressed in Chinese hamster ovary (CHO) K1 cells (Ruat, M., Proc. Natl. Acad. Sci. USA. 87(5):1658, 1990) in a 50 mM Phosphate buffer, pH 7.4 was used. Compounds of the invention were incubated with 0.1 nM [^125I]Aminopotentidine for 120 minutes at 25° C. Non-specific binding was estimated in the presence of 3 μM Tiotidine. Receptor proteins were filtered and washed, the filters were then counted to determine [^125I]Aminopotentidine specifically bound. Compounds were screened at 1 μM or lower, using 1% DMSO as vehicle. Biochemical assay results are presented as the percent inhibition of specific binding in Table 2.

[4] = molecular target: T4, human recombinant dopamine D2L receptor (Homo sapiens, UniProt P14416); experiment: Dopamine D2L radioligand binding ([3H]Spiperone); details: read-out: Dopamine (1 μM) D2L, inhibition of ligand binding
T4 construct: expressed in transfected cells; host or cells: CHO cells
Description: To evaluate in radioligand binding assays the activity of compounds of the invention, human recombinant dopamine D2L receptor expressed in Chinese hamster ovary (CHO) cells (Grandy, D. K. et al. Proc. Natl. Acad. Sci. USA. 86:9762, 1989; Hayes, G. et al., Mol. Endocrinol. 6:920, 1992) in a modified Tris-HCl buffer (50 mM Tris-HCl, pH 7.4, 1.4 mM Ascorbic Acid, 0.001% BSA, 150 mM NaCl) was used. Compounds of the invention were incubated with 0.16 nM [^3H]Spiperone for 120 minutes at 25° C. Non-specific binding was estimated in the presence of 10 μM Haloperidol. Receptor proteins were filtered and washed, the filters were then counted to determine [^3H]Spiperone specifically bound. Compounds were screened at 1 μM or lower, using 1% DMSO as vehicle. Biochemical assay results are presented as the percent inhibition of specific binding in Table 3.

T4 sequence (P14416 whole entry): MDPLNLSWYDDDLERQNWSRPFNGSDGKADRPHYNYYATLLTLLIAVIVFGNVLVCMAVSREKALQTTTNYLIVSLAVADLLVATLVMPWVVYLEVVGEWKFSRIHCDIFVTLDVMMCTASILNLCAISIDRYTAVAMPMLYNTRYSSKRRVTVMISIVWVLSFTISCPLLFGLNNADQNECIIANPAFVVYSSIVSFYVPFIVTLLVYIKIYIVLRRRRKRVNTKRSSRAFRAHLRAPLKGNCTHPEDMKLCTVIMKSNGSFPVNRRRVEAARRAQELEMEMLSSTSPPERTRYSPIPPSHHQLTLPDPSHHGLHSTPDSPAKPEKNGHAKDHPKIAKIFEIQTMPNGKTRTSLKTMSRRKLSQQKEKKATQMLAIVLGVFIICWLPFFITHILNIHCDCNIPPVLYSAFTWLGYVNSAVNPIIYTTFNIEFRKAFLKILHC
T3 sequence (P25021 whole entry): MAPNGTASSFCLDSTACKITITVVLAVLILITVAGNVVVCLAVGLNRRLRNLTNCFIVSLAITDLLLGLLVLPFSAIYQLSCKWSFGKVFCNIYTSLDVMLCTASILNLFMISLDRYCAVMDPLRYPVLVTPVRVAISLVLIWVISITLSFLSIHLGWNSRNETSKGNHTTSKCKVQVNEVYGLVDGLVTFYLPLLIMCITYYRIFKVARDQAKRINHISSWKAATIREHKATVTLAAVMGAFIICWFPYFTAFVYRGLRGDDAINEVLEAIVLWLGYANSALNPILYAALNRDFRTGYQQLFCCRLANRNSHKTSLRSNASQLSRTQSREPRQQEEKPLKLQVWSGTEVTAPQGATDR

SMILES | inhibition at 0.01 µM ([1]; 10.0 nM, read-out: Adrenergic α2B, inhibition of ligand binding (10.0 nM)) | inhibition at 0.1 µM ([1]; 0.1 μM, read-out: Adrenergic α2B, inhibition of ligand binding (0.1 μM)) | inhibition at 1 µM [1] | inhibition at 1 µM [2] | inhibition at 1 µM [3] | inhibition at 1 µM [4] | Adrenergic α2B, inhibition of ligand binding (1 μM) [1] | Serotonin 5-HT2C, inhibition of ligand binding (1 μM) ([2]; 1 µM) | Histamine Binding (1 μM) H2, Percentage Inhibition ([3]; 1 µM)
Cc1ccc2c(c1)c1c(n2CCc2ccccc2)CC2CCC1N2C (stereo not drawn) [Compound 2] | 85% | 108% | 98% | 79% | 43% | – | – | – | –
CN1C2CCC1c1c(n(CCC(=O)N3CCNC(=O)C3)c3ccc(Cl)cc13)C2 (stereo not drawn) [Compound 3] | – | – | -17% | 2% | 2% | -3% | – | – | –
CN1C2CCC1c1c(n(CCC(=O)N3CCCC3)c3ccc(Cl)cc13)C2 (stereo not drawn) [Compound 5] | – | – | 30% | -9% | -9% | 10% | – | – | –
CC(=O)N1CCN(C(=O)CCn2c3c(c4cc(Cl)ccc42)C2CCC(C3)N2C)CC1 (stereo not drawn) [Compound 8] | – | – | -9% | -6% | 9% | 1% | – | – | –
CN1C2CCC1c1c(n(CCC(=O)N3CCNCC3)c3ccc(Cl)cc13)C2 (stereo not drawn) [Compound 9] | – | – | -15% | 5% | 3% | 7% | – | – | –
CN1C2CCC1c1c(n(CCC(=O)N3CC[S+]([O-])CC3)c3ccc(Cl)cc13)C2 (stereo not drawn) [Compound 10] | – | – | 7% | 4% | 1% | -2% | – | – | –
CN1C2CCC1c1c(n(CCC(=O)N3CCS(=O)(=O)CC3)c3ccc(Cl)cc13)C2 (stereo not drawn) [Compound 11] | – | – | 1% | 13% | 9% | 2% | – | – | –
CN1C2CCC1c1c(n(CCC(=O)N3CCSCC3)c3ccc(Cl)cc13)C2 (stereo not drawn) [Compound 12] | – | – | 10% | 26% | -2% | -4% | – | – | –
CN1C2CCC1c1c(n(CCC(=O)N3CCOCC3)c3ccc(Cl)cc13)C2 (stereo not drawn) [Compound 13] | – | – | 7% | 8% | -2% | 13% | – | – | –
Cc1ccc2c(c1)c1c(n2CCc2ccc(C)nc2)CC2CCC1N2C (stereo not drawn) [Compound 32] | – | – | 82% | -3% | 13% | 10% | – | – | –
CN1C2CCC1c1c(n(CCc3ccc(Cl)cc3)c3ccc(F)cc13)C2 (stereo not drawn) [Compound 33] | – | – | 100% | 64% | 18% | 17% | – | – | –
CN1C2CCC1c1c(n(CCc3ccc(C(F)(F)F)nc3)c3ccc(Cl)cc13)C2 (stereo not drawn) [Compound 34] | – | – | 103% | 27% | 12% | -0.875% | 100.0% | 28.0% | 24.0%
CN1C2CCC1c1c(n(CCc3ccc(F)cc3)c3ccc(F)cc13)C2 (stereo not drawn) [Compound 35] | – | – | 110% | 86% | 27% | 67% | – | – | –
CN1C2CCC1c1c(n(CCCc3ccc(C(F)(F)F)nc3)c3ccc(Cl)cc13)C2 (stereo not drawn) [Compound 37] | – | – | 51% | 26% | 7% | 2% | – | – | –
Cc1ccc(CCCn2c3c(c4cc(Cl)ccc42)C2CCC(C3)N2C)cn1 (stereo not drawn) [Compound 38] | – | – | 76% | 23% | 9% | -5% | – | – | –
CN1C2CCC1c1c(n(CCCc3ccc(Cl)cc3)c3ccc(Cl)cc13)C2 (stereo not drawn) [Compound 39] | – | – | 54% | 94% | 86% | 2% | – | – | –
Cc1ccc(C(O)Cn2c3c(c4cc(Cl)ccc42)C2CCC(C3)N2C)cn1 (stereo not drawn) [Compound 52] | – | – | 85% | 11% | 2% | 10% | – | – | –
Cc1ccc2c(c1)c1c(n2CC(C)(O)c2ccc(Cl)cc2)CC2CCC1N2C (stereo not drawn) [Compound 54] | – | – | 94% | 93% | 50% | 14% | – | – | –
Cc1ccc2c(c1)c1c(n2CCc2ccccc2)CC2CCCC1N2C (stereo not drawn) [Compound 56] | – | – | 100% | 36% | 16% | – | – | – | –
CN1C2CCC1c1c(n(CCc3ccc(F)cc3)c3ccc(Cl)cc13)C2 (stereo not drawn) [Compound 57] | – | – | 98% | 88% | 37% | – | – | – | –
CN1C2CCC1c1c(n(CCc3ccc(Cl)cc3)c3ccc(Cl)cc13)C2 (stereo not drawn) [Compound 58] | – | – | 99% | 84% | 52% | – | – | – | –
CN1C2CCC1c1c(n(CC(=O)N3CCOCC3)c3ccc(Cl)cc13)C2 (stereo not drawn) [Compound 59, 2-(2-chloro-11-methyl-5,6,7,8,9,10-Hexahydro-7,10-iminocyclohept[b]indol-5-yl)-1-morpholinoethanone] | – | – | 20% | 8% | 15% | 6% | – | – | –
CN1C2CCC1c1c(n(CC(=O)N3CCCC3)c3ccc(Cl)cc13)C2 (stereo not drawn) [Compound 60] | – | – | 5% | 15% | 3% | 0% | – | – | –
Cc1ccc(CCn2c3c(c4cc(Cl)ccc42)C2CCC(C3)N2C)cc1 (stereo not drawn) [Compound 61] | – | – | 96% | 86% | 52% | 44% | – | – | –
Cc1ccc2c(c1)c1c(n2CCc2ccc(F)cc2)CC2CCC1N2C (stereo not drawn) [Compound 62] | – | – | 104% | 87% | 52% | 41% | – | – | –
Cc1ccc2c(c1)c1c(n2CCc2ccc(C(F)(F)F)nc2)CC2CCC1N2C (stereo not drawn) [Compound 71] | – | – | 99% | -0.259% | – | -2% | 98.0% | – | –
